From patent US20070098787A1, “Composition for preventing and treating varicose veins of lower extremities” (MOCHIDA PHARMACEUTICAL CO., LTD., priority 2003, published 2007) come the findings set out here.

SMILES strings stand for the structures.

In this data set the test system is varicose veins of lower extremities. The data set can be described thus: Case report: patient with varicose veins of lower extremities, Dorner replaced with EPADEL S. Particulars: person. In kind it is in vivo, human. On the procedure:
A person diagnosed with hypertension, diabetes, hyperlipidemia, and varicose veins of lower extremities (serious conditions with multiple dilatations, winding varices, and skin pigmentation in both legs) was administered with Dorner (trade name; manufactured by Toray Industries, Inc.; generic name, beraprost sodium; a therapeutic agent for chronic artery occlusion) in expectation of therapeutic effect on varicose veins of lower extremities together with Adalat L (trade name; manufactured by Bayer; generic name, nifedipine; coronary vasodilator), Basen (trade name; manufactured by Takeda Pharmaceutical Company Limited; generic name, voglibose; α-glucosidase inhibitor), Lochol (trade name; manufactured by Ciba Geigy Japan Ltd.; generic name, fluvastatin sodium; HMG-CoA reductase inhibitor), and NU-LOTAN (trade name; manufactured by Banyu Pharmaceutical Co., Ltd.; generic name, losartan potassium; angiotensin II receptor antagonist). […] Accordingly, Dorner was replaced with EPADEL S (trade name; manufactured by Mochida Pharmaceutical Co., Ltd.; generic name, ethyl eicosapentate (EPA-E)) at a dose of 600 mg×3 packets per day. […] The skin pigmentation also disappeared. […] No therapeutic method was changed except the change of the drug from Dorner to EPADEL S.

[1] abbreviates: 600 mg×3 packets per day, after about 1 month, Dorner replaced, other medication unchanged.

With `CC#CCC(C)[C@H](O)/C=C/[C@@H]1[C@H]2c3cccc(CCCC(=O)O)c3O[C@H]2C[C@H]1O` (mixture of isomers) [Dorner, beraprost sodium], where the note is “serious conditions in both legs, Dorner given together with Adalat L, Basen, Lochol and NU-LOTAN, after the medication”, the “improvement in the varicose veins of lower extremities” value was “No improvement”.
Take `CC/C=C\C/C=C\C/C=C\C/C=C\C/C=C\CCCC(=O)OCC` [EPADEL S, ethyl eicosapentate]: the “adverse event presumably caused by the drug” value (600 mg×3 packets per day, about 1 month) was “No adverse event”. The skin pigmentation entry (600 mg×3 packets per day, after about 1 month) was “disappeared”. Under setting [1], the “varicose veins in the left leg” value is “substantial improvement” and the “varicose veins in the right leg” value was “substantial disappearance”.
